11 compounds from patent US9133240B2, “Compounds binding to the bacterial beta ring” (Centre National de la Recherche Scientifique, priority 2011, dated 2015) can be followed below.

The structures appear in SMILES notation. Square brackets hold non-standard residues; d marks the D form. Peptide text beside a SMILES is read from it. hCha = N[C@@H](CCC1CCCCC1)C(=O)O; tBuAla = CC(C)(C)C[C@H](N)C(=O)O; Cha = N[C@@H](CC1CCCCC1)C(=O)O; hLeu = CC(C)CC[C@H](N)C(=O)O

The target in the test is T1, E. coli β clamp (Escherichia coli, UniProt P0A988).
T1 construct: made in house; host or cells: E. coli BL21 (β); P1 by solid-phase synthesis
Put plainly: SPR competition assay: inhibition of P1-β interaction by challenging peptides.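 For all read-outs here: SPR responses corrected for background, then fitted with a 1:1 Langmuir binding model.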 To be noted: for ΔG: ΔG = −RT ln Ki; for IC50: IC50 (μM), inhibition of binding of β ring (0.25 μM) to immobilized P1; for Ki (10^6 M^−1): Ki = (1 + KA[β])/IC50. In kind it is binding.

T1 sequence (P0A988 whole entry): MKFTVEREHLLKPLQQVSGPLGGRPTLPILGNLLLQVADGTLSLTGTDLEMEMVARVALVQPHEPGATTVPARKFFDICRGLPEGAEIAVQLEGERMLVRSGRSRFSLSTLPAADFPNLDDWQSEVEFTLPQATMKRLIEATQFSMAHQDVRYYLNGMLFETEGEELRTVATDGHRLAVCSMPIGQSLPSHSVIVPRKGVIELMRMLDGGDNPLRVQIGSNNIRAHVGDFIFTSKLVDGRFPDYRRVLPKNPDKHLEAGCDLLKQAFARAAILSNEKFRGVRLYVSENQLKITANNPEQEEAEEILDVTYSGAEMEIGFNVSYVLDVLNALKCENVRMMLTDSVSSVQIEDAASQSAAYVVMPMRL
Method: SPR experiments were performed on a Biacore® 3000. […] After subtraction of the background response, the data were fit to the 1:1 Langmuir model using BIAevaluation (Biacore™). […] IC50 values for each challenging peptide were determined by plotting the concentration of peptide against the percentage of binding inhibition. The IC50 value of each peptide was used to calculate Ki (Ki=(1+KA[β])/IC50) which measures the affinity of the challenging peptide for β in the competition assay, and AG was derived from Ki (ΔG=RT ln Ki).

For `CC(C)C[C@H](NC(=O)[C@H](CC(=O)O)NC(=O)[C@H](CC(C)C)NC(=O)[C@@H](N)CCC(N)=O)C(=O)N[C@@H](Cc1ccccc1)C(=O)O` [Peptide P5, H-Gln-Leu-Asp-Leu-Phe-OH], the “ΔG” value (SPR) is -6.87 kcal/mol.

Consider `CC(=O)N[C@@H](CCC(N)=O)C(=O)N[C@@H](CCC1CCCCC1)C(=O)N[C@@H](CC(=O)O)C(=O)N[C@@H](CC(C)C)C(=O)N[C@@H](Cc1ccccc1)C(=O)O` [Peptide P8, Ac-Gln-hCha-Asp-Leu-Phe-OH] (Ac-Q[hCha]DLF-OH), for which, under “SPR”, the IC50 (usually the point on the concentration scale where inhibition reaches its midpoint) amounted to 82.8 µM, the “Ki (10^6 M^−1)” value is 16.4 10^6 M^−1 and the “ΔG” value is -5.74 kcal/mol.

As for `CC(=O)N[C@@H](CCC(N)=O)C(=O)N[C@@H](CCC(C)C)C(=O)N[C@@H](CC(=O)O)C(=O)N[C@@H](CC(C)C)C(=O)N[C@@H](Cc1ccccc1)C(=O)O` [Peptide P9, Ac-Gln-Hol-Asp-Leu-Phe-OH], under “SPR”, the IC50 was 0.74 µM, the “Ki (10^6 M^−1)” value was 1.84 10^6 M^−1 and the “ΔG” value was -8.54 kcal/mol.

As for `CC(=O)N[C@@H](CCC(N)=O)C(=O)N[C@@H](CC(C)(C)C)C(=O)N[C@@H](CC(=O)O)C(=O)N[C@@H](CC(C)C)C(=O)N[C@@H](Cc1ccccc1)C(=O)O` [Peptide P10, Ac-Gln-NptGly-Asp-Leu-Phe-OH] (Ac-Q[tBuAla]DLF-OH), under “SPR”, the IC50 is 0.99 µM, the “Ki (10^6 M^−1)” value was 1.36 10^6 M^−1 and the “ΔG” value was -8.36 kcal/mol.

Take `CC(=O)N[C@@H](CCCNC(=N)N)C(=O)N[C@@H](CCC(N)=O)C(=O)N[C@@H](CC1CCCCC1)C(=O)N[C@@H](CCCNC(=N)N)C(=O)N[C@@H](CC(C)C)C(=O)N[C@@H](Cc1ccccc1)C(=O)O` [Peptide P14-7, Ac R Q Cha R L F] (Ac-RQ[Cha]RLF-OH; N-terminus and C-terminus assumed): the “affinity ratio compared to P7” value (SPR) was “at least 50”.

`CC(=O)N[C@@H](CCCNC(=N)N)C(=O)N[C@@H](CCC(N)=O)C(=O)N[C@@H](CC1CCCCC1)C(=O)N[C@@H](CCCCN)C(=O)N[C@@H](CC(C)C)C(=O)N[C@@H](Cc1ccccc1)C(=O)O` [Peptide P14-8, Ac R Q Cha K L F] (Ac-RQ[Cha]KLF-OH; C-terminus assumed): the affinity, expressed as Ki, was 904 nM. For the setting “SPR”, the “affinity for the target” value is 1 µM and the “fold decrease in affinity compared to P14” value was 10 fold.

In turn, `CC(=O)N[C@@H](CCC(N)=O)C(=O)N[C@@H](CC1CCCCC1)C(=O)N[C@@H](CC(=O)O)C(=O)N[C@@H](CCC(C)C)C(=O)N[C@@H](Cc1ccccc1)C(=O)O` [Peptide P16, Ac Q Cha D hLeu F] (Ac-Q[Cha]D[hLeu]F-OH; C-terminus assumed) came in with an IC50 (SPR) of 0.23 µM.

As to `CC(=O)N[C@@H](CCC(N)=O)C(=O)N[C@@H](CC1CCCCC1)C(=O)N[C@@H](CC(=O)O)C(=O)N[C@@H](CC1CCCCC1)C(=O)N[C@@H](Cc1ccccc1)C(=O)O` [Peptide P17, Ac Q Cha D Cha F] (Ac-Q[Cha]D[Cha]F-OH; C-terminus assumed), the IC50 (SPR) was 0.31 µM.

`CC(=O)N[C@@H](CCC(N)=O)C(=O)N[C@@H](CC1CCCCC1)C(=O)N[C@@H](CC(=O)O)C(=O)N[C@@H](CCC1CCCCC1)C(=O)N[C@@H](Cc1ccccc1)C(=O)O` [Peptide P18, Ac Q Cha D hCha F] (Ac-Q[Cha]D[hCha]F-OH; C-terminus assumed) displayed an IC50 (SPR) of 0.72 µM.

Turning to `CC(=O)N[C@@H](CCC(N)=O)C(=O)N[C@@H](CC1CCCCC1)C(=O)N[C@@H](CC(=O)O)C(=O)N[C@@H](CC(C)(C)C)C(=O)N[C@@H](Cc1ccccc1)C(=O)O` [Peptide P19, Ac Q ChaD NptGly F] (Ac-Q[Cha]D[tBuAla]F-OH; C-terminus assumed), the IC50 (SPR) turned out to be 5.63 µM.

As to `CC(=O)N[C@@H](CCC(N)=O)C(=O)N[C@@H](CC1CCCCC1)C(=O)N[C@@H](CC(=O)O)C(=O)N[C@@H](CC(C)C)C(=O)N[C@@H](CC1CCCCC1)C(=O)O` [Peptide P20, Ac-Q Cha DL Cha] (Ac-Q[Cha]DL[Cha]-OH; C-terminus assumed), the IC50 (SPR) was 0.41 µM.
